Each block holds one molecule with its values, some of them ahead of it.
How the values were obtained:
[1] = system: Sema3A-mediated axonal repulsion of NGF-dependent DRG axons; assay: in vitro rat DRG growth cone repulsion assay using Sema 3A-secreting 293 cells; assay type: cell-based; conditions: for attenuation of Sema 3A mediated axonal repulsion: inhibitors of other redox enzymes at concentrations previously shown to be effective in cell culture conditions
Procedure: FIG. 4A provides a schematic diagram of the rat D E14/15 Rat DRG explants were co-cultured with 293 cells expressing Sema 3A and grown for 48 hours in the presence of an inhibitor or vehicle. Axonal outgrowth was determined by measuring proximal (P) and distal (D) axon lengths.
DRG repulsion assays were performed as described (Messersmith et al., 1995).
(§1) Scoring was done by splitting explants into quadrants and scoring all growth cones as either collapsed or not-collapsed.

[2] = system: Sema3A-mediated growth cone collapse in NGF-dependent DRG neurons; assay: DRG growth cone collapse assay with AP-Sema3A; assay type: cell-based, rat; conditions: 25 mM EGCG, 3 hours in EGCG prior to 1 hour 1 nM AP-Sema3A
Excerpt: FIG. 4C provides a graph that quantitates the effects of oxidation/reduction enzyme inhibitors on Sema 3A repulsion scored as the ratio of the axon lengths on the proximal and distal sides of the explant (P/D ratio), and on Sema3A-mediated growth cone collapse indicated as % collapsed growth cones (gray). In repulsion assays, outgrowth of DRG axons on the side distal to the 293 cells appeared normal. […] For Rote, n=4, however only 4 out of 12 explants survived. (**=p<0.0001; *=p<0.001; paired t-test). Scale bar=[…].
as §1

[3] = target: T1, NADPH-cytochrome P450 reductase (Homo sapiens, UniProt P16435); conditions: similar concentrations of EGCG; cited from earlier work
T1 sequence (P16435 1-677): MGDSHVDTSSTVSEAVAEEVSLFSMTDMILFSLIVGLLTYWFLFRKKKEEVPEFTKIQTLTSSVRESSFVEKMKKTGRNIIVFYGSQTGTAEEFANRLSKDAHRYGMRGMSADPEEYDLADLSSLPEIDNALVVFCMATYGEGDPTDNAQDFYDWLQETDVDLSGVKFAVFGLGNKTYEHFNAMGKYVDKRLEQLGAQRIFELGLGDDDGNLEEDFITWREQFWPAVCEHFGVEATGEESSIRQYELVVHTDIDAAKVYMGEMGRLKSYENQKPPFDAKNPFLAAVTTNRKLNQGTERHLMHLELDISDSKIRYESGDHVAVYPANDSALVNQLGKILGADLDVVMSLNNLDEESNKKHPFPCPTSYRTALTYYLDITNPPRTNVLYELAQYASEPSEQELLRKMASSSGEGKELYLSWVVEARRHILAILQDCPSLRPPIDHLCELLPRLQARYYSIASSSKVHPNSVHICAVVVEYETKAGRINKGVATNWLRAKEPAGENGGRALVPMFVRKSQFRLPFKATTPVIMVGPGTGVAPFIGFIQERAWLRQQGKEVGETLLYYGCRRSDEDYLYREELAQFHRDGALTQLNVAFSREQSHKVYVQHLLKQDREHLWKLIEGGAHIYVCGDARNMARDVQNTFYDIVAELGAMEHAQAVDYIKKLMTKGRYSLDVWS

telomerase = telomerase (Homo sapiens, UniProt O14746); conditions: similar concentrations of EGCG; cited from earlier work
Sequence of telomerase (O14746 whole entry): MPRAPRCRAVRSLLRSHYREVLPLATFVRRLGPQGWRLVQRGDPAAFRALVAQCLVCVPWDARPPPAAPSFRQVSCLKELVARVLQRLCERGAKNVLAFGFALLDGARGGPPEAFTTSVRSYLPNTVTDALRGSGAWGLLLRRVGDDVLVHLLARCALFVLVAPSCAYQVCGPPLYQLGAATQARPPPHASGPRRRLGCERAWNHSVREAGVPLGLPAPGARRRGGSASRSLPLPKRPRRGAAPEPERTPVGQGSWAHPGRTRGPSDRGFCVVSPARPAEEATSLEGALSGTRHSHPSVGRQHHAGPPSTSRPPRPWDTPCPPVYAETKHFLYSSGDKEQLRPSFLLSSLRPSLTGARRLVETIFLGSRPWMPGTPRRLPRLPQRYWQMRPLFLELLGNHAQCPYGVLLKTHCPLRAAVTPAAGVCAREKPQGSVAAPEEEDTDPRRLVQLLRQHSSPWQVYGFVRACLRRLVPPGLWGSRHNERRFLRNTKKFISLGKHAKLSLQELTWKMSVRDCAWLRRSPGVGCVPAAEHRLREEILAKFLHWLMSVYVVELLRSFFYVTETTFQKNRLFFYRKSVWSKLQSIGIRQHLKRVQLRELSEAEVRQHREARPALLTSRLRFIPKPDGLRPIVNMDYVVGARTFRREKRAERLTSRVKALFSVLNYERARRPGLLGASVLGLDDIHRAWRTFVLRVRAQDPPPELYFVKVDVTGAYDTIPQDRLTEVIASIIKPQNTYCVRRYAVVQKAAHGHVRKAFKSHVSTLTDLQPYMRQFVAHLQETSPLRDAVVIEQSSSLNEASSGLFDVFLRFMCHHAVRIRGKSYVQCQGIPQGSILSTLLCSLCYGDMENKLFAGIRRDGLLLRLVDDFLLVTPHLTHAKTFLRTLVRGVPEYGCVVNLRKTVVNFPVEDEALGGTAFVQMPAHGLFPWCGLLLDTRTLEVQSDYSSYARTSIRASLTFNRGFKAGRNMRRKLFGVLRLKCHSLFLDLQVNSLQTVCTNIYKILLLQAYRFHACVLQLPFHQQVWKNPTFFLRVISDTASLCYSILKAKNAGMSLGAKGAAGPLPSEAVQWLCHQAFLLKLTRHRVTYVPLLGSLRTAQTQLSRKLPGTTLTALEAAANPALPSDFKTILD

[4] = target: matrix metalloproteinase MMP-9 (Homo sapiens, UniProt P14780); conditions: similar concentrations of EGCG; cited from earlier work
Sequence of matrix metalloproteinase MMP-9 (P14780 94-707): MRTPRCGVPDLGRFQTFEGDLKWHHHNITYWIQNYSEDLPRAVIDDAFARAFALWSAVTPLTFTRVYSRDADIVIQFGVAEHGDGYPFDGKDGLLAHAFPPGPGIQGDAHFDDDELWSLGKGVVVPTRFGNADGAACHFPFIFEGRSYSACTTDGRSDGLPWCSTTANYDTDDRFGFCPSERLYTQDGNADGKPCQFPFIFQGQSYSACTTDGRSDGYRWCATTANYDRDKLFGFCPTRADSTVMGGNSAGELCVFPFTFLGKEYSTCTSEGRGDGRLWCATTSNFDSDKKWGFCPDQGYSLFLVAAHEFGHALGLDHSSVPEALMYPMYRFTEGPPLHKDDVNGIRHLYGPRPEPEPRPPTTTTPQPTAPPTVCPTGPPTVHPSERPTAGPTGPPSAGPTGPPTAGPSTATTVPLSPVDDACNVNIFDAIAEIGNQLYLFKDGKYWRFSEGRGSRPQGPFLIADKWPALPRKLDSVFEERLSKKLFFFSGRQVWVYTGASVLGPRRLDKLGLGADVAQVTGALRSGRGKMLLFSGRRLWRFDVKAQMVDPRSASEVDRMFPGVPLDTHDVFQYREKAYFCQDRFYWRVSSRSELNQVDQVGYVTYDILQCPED

phenol sulfotransferase = conditions: similar concentrations of EGCG; cited from earlier work
[5] = target: p-hydroxybenzoate hydroxylase (pHBH) (Pseudomonas aeruginosa, UniProt P20586); conditions: cited from earlier work
Sequence of p-hydroxybenzoate hydroxylase (pHBH) (P20586 whole entry): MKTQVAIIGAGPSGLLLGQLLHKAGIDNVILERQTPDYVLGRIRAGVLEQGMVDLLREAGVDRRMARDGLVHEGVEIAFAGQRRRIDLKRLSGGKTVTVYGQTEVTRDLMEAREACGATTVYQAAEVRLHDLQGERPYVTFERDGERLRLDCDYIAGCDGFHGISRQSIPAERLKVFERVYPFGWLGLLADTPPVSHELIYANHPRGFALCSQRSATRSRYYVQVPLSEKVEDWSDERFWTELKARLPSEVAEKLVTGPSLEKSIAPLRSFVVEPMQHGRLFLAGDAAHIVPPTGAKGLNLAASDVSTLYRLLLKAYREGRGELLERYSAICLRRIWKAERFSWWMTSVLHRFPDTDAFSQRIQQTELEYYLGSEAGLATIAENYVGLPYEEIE

steroid 5a-reductase = conditions: similar concentrations of EGCG; cited from earlier work
[6] = target: T2, Drosophila MICAL (endogenous protein in embryo lysates) (Drosophila, UniProt Q86BA1 1-4723); assay: co-immunoprecipitation from embryo lysates with MICAL-CT antibodies, Western blot
T2 construct: also called "large" MICAL isoform; long isoform

Molecule: Oc1ncnc2[nH]ncc12 [allopurinol]
attenuation of Sema 3A mediated axonal repulsion [1]: No attenuation

Molecule: C=C(C)[C@H]1Cc2c(ccc3c2O[C@@H]2COc4cc(OC)c(OC)cc4[C@@H]2C3=O)O1 [rotenone]
attenuation of Sema 3A mediated axonal repulsion [1]: No attenuation | explants survived ([1]; repulsion assay, n=4): 4 out of 12

Molecule: (−)-epigallocatechin gallate [EGCG]
Sema3A-mediated growth cone collapse [2]: dramatically abrogates | Sema3A repulsion ([1]; 25 mM EGCG added to the growth media, E14/15 rat DRG explants co-cultured with Sema 3A 293 cells for 48 hours): completely neutralized | inhibition of NADPH-cytochrome P450 reductase [3]: inhibit | inhibition of telomerase (telomerase): inhibit | inhibition of MMP-9 [4]: inhibit | inhibition of phenol sulfotransferase (phenol sulfotransferase): inhibit | inhibition of p-hydroxybenzoate hydroxylase (pHBH) [5]: potent and selective inhibitors | inhibition of steroid 5a-reductase (steroid 5a-reductase): inhibit

binding result [6]: no binding
B1: Unc5, Drosophila (receptor, UniProt Q95TU8 31-1072, looked up)
chain: ELPQLDYGSLSASLEEDAIDPLTAMAPFANSLVTEESAQHKNNAELLGNSSEDENVRPQQGSSSSGLGSSGAAGGSGILLEEFNSGKLSPGEASNTLPIFLIEPESVFVVKNRPAVLKCKASHSLQVIFKCSGSSQPPPSTHETHVDPHTGVNMEEVTATIHRDLVDEFFGDGPFKCECHAWSSRGVVKSQAATVHIAYIRKSFNQSPTSLRLELGSRAELRCEPPGGFPEPKLTWHKNNAVITADSEPGITVSAGTLIFRQVALQHMANYSCSAENIAGRRVSDSAVLIVYVNGGWSTWSPWRECKCAGKPSQGRKRSRTCNNPMPLNGGAQCPGPQIQKSADCAACPEDTQIVSPDGFDISSSKRMARWSAWSDWSICSAECIQVRRRKCLTQGQTQISSEAEEAGDLLLGAPGVGMAALIAAAGVGAVGSPSEATGSSSDIIPGYGKSLCAGKDIQTAECRGEQCQIGKDDFDWTLYLGLAFITAVCFAFGTALICCARRGIRTNPHYNMARSVMDADYMPGVVEKKEMRMHIEASNMGYDYVNPGHRYLPGEHIMGMGIGCGGVTEHHYDVPNLSANYTNPIDHLSVDYLSETGESSTADTSNSTFDMNGKLSILNASKSSTYEMLGSAGGQLRLYGGELLLFVPEHAIGKHVKKHVSLLLLSDECSRVSCATESSILCSSVVHSAPRNYSFVKPVILKIPHCLVAPEQWHVHIYHADSEHDELSVNWRRAVSVGEETINTPMFVQLEATHVFIMTEQLGHFTVVAEPRIQQPSIKMKLLAFSQHTPPSNANCSLRIYVVKDFPNSRDICANVEAKLGGSFLGESQVFAFTLNSRNLNIRVRSADVEAAAPYEHAIPYQHILSNNSILHCEFSLRRQDQNSLCVDFGQGSEDDYYTFNIPAHSMSGSAEELASTTNTTISIDRQGNYVNESCVMDFVQLPHATKRLICGALDPPRADERDWRLLAKKLNTDRYIAYFATKASPTEQILNLWECRANSSPGSSSNSVSHTIMALLLTLKEMGRQDVLDIIVETIGPLWI
notes: Specificity control in the co-immunoprecipitation

From US20030232419A1, “Molecules interacting with CASL (MICAL) polynucleotides, polypeptides, and methods of using the same” (priority 2002, published 2003)
